The test system of this experiment is K328M-Wee1-Luc fusion protein in transiently transfected HeLa cells. The experiment is described as follows: K328M-Wee1-Luc degradation. The experiment is classed as cell-based.

Read-outs that look alike come from different tables or passages of the source. Where a SMILES comes first, the peptide text is derived from it. The star is where a group is joined. Cbz = O=C(OCc1ccccc1)* Where only a bound is given, the exact number is not on record here.

For orientation: EC50 means the midpoint of the concentration-response curve.

As to `CC(C)C[C@@H](C=O)NC(=O)[C@H](CC(C)C)NC(=O)[C@H](CC(C)C)NC(=O)OCc1ccccc1` [MG132, Z-Leu-Leu-Leu-CHO] (Cbz-Leu-Leu-Leu-aldehyde), the “hill slope of dose-response curve” value is over 2.5. Besides, the “increase in luminescent levels” value (30 μM, vs DMSO) is given as over 9 fold. Also, the concentration giving a half-maximal response (EC50) (optimized 1536-well protocol, n=5) was determined as 4.69 µM. Further, the EC50 (read-out: EC50, different thawed vials from a single batch, n=4) turned out to be 4.7 µM. Also, the EC50 (read-out: EC50, non-cryopreserved cells, non-cryopreserved cell suspensions) came out at 5.33 µM.
